Test results from patent publication US20230416239A1, “COMPOUNDS AND METHODS FOR TREATING A CYTOKINE-MEDIATED DISEASE” (CONSERVATOIRE NATIONAL DES ARTS ET MÉTIERS, priority 2020, published 2023).
pIC50: −log10 of the molar value. Each block holds one molecule with its values, some of them ahead of it.

Columns and labels:
[1] = biological target: IL-13 (Homo sapiens, UniProt P35225); assay: Immunoassay binding test, IL-13; details: for pIC50: IL-13 400 ng/ml, receptor 100 ng/ml, read-out: BINDING IL13 IC50
Sequence of IL-13 (P35225 25-146, species assumed): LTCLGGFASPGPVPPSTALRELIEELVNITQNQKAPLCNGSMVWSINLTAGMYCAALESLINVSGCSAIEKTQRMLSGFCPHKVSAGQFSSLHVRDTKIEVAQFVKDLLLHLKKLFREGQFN
Method: (§1) Microtiter plates (96 wells) are covered with 100 μl of receptor per well, and incubated overnight at 4° C. The following day, after 2 washes in PBS/Tween20, the plates are saturated with 150 μl of PBS/BSA 2% per well, for 2 h at 37° C. Synthetic compounds are diluted in series (final concentrations: 100 to 0.78 μM) then a fixed amount of cytokine in PBS/BSA 1% is added to the compounds, in a final volume of 120 μl per well. […] The cytokine is diluted in series (six concentrations) in a final volume of 120 μl per well. […] The different mixtures are incubated for 2 h at 37° C. 100 μl of each mixture are then transferred to the microtiter plate, respecting the plate plan previously defined and incubated overnight at 4° C. After three washes, 100 μl of biotinylated anti-cytokine secondary antibody are added to each well, then incubated for 2 h at 37° C. After three washes, 100 μl of Avidin-HRP (1/500th dilution) are added and incubated for 30 minutes at 37° C. […] The plates are then read with a spectrophotometer at 450 nm, measuring the optical density for each well.
(§2) This binding test is carried out with different cytokines: TNFa, IL-4, IL-6 and IL-13. For IL-6, the incubation of molecules with the cytokine also requires the presence of IL-6Ra at a final concentration of 200 ng/ml.
(§3) The final concentrations used for each of the cytokines are presented below: […]

[2] = biological target: T1, IL-4 (Homo sapiens, UniProt P05112); assay: Immunoassay binding test, IL-4; details: for pIC50: IL-4 400 ng/ml, receptor 100 ng/ml, read-out: BINDING IL4 IC50
T1 sequence (P05112 25-153): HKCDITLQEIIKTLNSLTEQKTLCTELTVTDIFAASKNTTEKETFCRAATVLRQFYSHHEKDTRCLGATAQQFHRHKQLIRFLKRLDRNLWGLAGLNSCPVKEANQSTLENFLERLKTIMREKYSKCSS
Method: (§4) Microtiter plates (96 wells) are covered with 100 μl of receptor per well, and incubated overnight at 4° C. The following day, after 2 washes in PBS/Tween20, the plates are saturated with 150 μl of PBS/BSA 2% per well, for 2 h at 37° C. Synthetic compounds are diluted in series (final concentrations: 100 to 0.78 μM) then a fixed amount of cytokine in PBS/BSA 1% is added to the compounds, in a final volume of 120 μl per well. […] The cytokine is diluted in series (six concentrations) in a final volume of 120 μl per well. The cytokine is used in the absence of small molecule as well as the range of SPD304 as positive controls and the absence of cytokine and synthetic molecule as negative control. The different mixtures are incubated for 2 h at 37° C. 100 μl of each mixture are then transferred to the microtiter plate, respecting the plate plan previously defined and incubated overnight at 4° C. After three washes, 100 μl of biotinylated anti-cytokine secondary antibody are added to each well, then incubated for 2 h at 37° C. After three washes, 100 μl of Avidin-HRP (1/500th dilution) are added and incubated for 30 minutes at 37° C. […] The plates are then read with a spectrophotometer at 450 nm, measuring the optical density for each well.
as §2, §3

[3] = biological target: TNFa/TNFRI interaction (Homo sapiens, UniProt P01375); assay: TNFa/TNFRI interaction displacement test; type: binding; details: for Displacement EC50 TNFa in presence of compound: Difference: Compound EC50 minus SPD304 EC50; for Displacement (%): compounds at 50 μM, human TNFRI 100 ng/ml;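 as to Displacement EC50 TNFa in presence of compound: Difference: SPD304 reference at 20 µM final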
Sequence of TNFa/TNFRI interaction (P01375 77-233 limits assumed): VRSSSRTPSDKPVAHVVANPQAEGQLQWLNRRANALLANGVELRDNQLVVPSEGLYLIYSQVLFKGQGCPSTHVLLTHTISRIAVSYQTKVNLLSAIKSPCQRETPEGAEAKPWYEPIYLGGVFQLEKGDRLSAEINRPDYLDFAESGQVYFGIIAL
Method: Microtiter plates (96 wells) are covered with 100 μl per well of human TNFRI, at a concentration of 100 ng/ml, then incubated overnight at 4° C. The following day, after two washes in PBS/Tween20, the plates are saturated with 150 μl of PBS/BSA 2% for 2 h at 37° C.
100 μl of each mixture are then transferred to the microtiter plate, respecting the established plate plan and incubated overnight at 4° C.
After three washes, 100 μl of biotinylated anti-cytokine secondary antibody are added to each well and incubated for 2 h at 37° C. After three washes, 100 Avl Avidin-HRP (dilution 1/500th) are added and incubated for 30 minutes at 37° C. […] The plates are then read with a spectrophotometer at 450 nm, measuring the optical density (OD) for each well.

[4] = biological target: IL-6 (Homo sapiens, UniProt P05231); assay: Immunoassay binding test, IL-6 (gp130 receptor, IL-6Ra present); details: IL-6Ra 200 ng/ml
Sequence of IL-6 (P05231 30-212, species assumed): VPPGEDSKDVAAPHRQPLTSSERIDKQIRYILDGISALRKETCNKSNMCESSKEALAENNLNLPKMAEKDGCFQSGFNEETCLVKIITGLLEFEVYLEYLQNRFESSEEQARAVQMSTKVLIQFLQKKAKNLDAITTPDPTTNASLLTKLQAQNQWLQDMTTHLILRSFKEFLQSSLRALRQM
Method: as §4, §2, §3

[5] = biological target: TNFα (Homo sapiens, UniProt P01375); assay: Immunoassay binding test, TNFa; details: compounds 100 to 0.78 μM; TNFα 10 ng/ml, receptor 100 ng/ml; read-out: BINDING TNF IC50
Sequence of TNFα (P01375 77-233 limits assumed, species assumed): as the sequence (P01375 77-233 limits assumed) above
Method: as §1, with “C.” for “C. Synthetic compounds are diluted in series (final concentrations: 100 to 0.78 μM) then a fixed amount of cytokine in PBS/BSA 1% is added to the compounds, in a final volume of 120 μl per well.”
as §2, §3

Structure (SMILES): FC(F)(F)c1cccc(-n2cc(CN(Cc3ccncc3)CC3CCCN(C4CCCCC4)C3)c3ccccc32)c1 (stereo not shown) [Compound 6]
- BINDING IL13 % Neutra at 100 μM [1]: 98.6%
- pIC50 [1]: 5.51
- BINDING IL4 % Neutra at 100 μM [2]: 95.7%
- pIC50 [2]: 5.44
- Displacement EC50 TNFa in presence of compound: Difference [3]: 3.4 ng/mL
- Displacement (%) [3]: 153%
- BINDING IL6 % Neutra at 100 μM [4]: 8.7%
- pIC50 [5]: 4.78

Structure (SMILES): O=S(=O)(c1ccccc1)n1cc(CN(CCCNC2CCCCC2)Cc2ccncc2)c2ccccc21 [Compound 8]
- BINDING IL13 % Neutra at 100 μM [1]: 81.7%
- pIC50 [1]: < 4.30
- BINDING IL4 % Neutra at 100 μM [2]: 98.1%
- pIC50 [2]: 5.28
- Displacement EC50 TNFa in presence of compound: Difference [3]: 10.9 ng/mL
- Displacement (%) [3]: 168%
- BINDING IL6 % Neutra at 100 μM [4]: 3.3%
- pIC50 [5]: 4.91

Structure (SMILES): CN(CCCN(Cc1cccnc1)Cc1cn(S(=O)(=O)c2ccccc2)c2ccccc12)C1CCCCC1 [Compound 9]
- BINDING IL13 % Neutra at 100 μM [1]: 59.7%
- pIC50 [1]: < 4.30
- BINDING IL4 % Neutra at 100 μM [2]: 94.4%
- pIC50 [2]: 5.10
- Displacement EC50 TNFa in presence of compound: Difference [3]: 4.3 ng/mL
- Displacement (%) [3]: 175%
- BINDING IL6 % Neutra at 100 μM [4]: 21%
- pIC50 [5]: 5.14

Structure (SMILES): FC(F)(F)c1cccc(-n2cc(CN(CCCNC3CCCCC3)Cc3cccnc3)c3ccccc32)c1 [Compound 10]
- BINDING IL13 % Neutra at 100 μM [1]: 91.1%
- pIC50 [1]: < 4.30
- BINDING IL4 % Neutra at 100 μM [2]: 96.4%
- pIC50 [2]: 5.26
- Displacement (%) [3]: 121%
- BINDING IL6 % Neutra at 100 μM [4]: 10.7%
- pIC50 [5]: 4.64

Structure (SMILES): CN(CCCN(Cc1ccncc1)Cc1cn(S(=O)(=O)c2ccccc2)c2ccccc12)C1CCCCC1 [Compound 11]
- BINDING IL13 % Neutra at 100 μM [1]: 90.2%
- pIC50 [1]: < 4.30
- BINDING IL4 % Neutra at 100 μM [2]: 97.6%
- pIC50 [2]: 5.21
- Displacement (%) [3]: 215%
- BINDING IL6 % Neutra at 100 μM [4]: −3%
- pIC50 [5]: 5.36

Structure (SMILES): FC(F)(F)c1cccc(-n2cc(CN(CCCNC3CCCCC3)Cc3ccncc3)c3ccccc32)c1 [Compound 12]
- BINDING IL13 % Neutra at 100 μM [1]: 58.2%
- pIC50 [1]: < 4.30
- BINDING IL4 % Neutra at 100 μM [2]: 96.3%
- pIC50 [2]: 4.91
- Displacement EC50 TNFa in presence of compound: Difference [3]: 14.2 ng/mL
- Displacement (%) [3]: 172%
- BINDING IL6 % Neutra at 100 μM [4]: 1.6%
- pIC50 [5]: 5.17

Structure (SMILES): CN(CCCN(Cc1cccnc1)Cc1cn(-c2cccc(C(F)(F)F)c2)c2ccccc12)C1CCCCC1 [Compound 13]
- BINDING IL13 % Neutra at 100 μM [1]: 85.2%
- pIC50 [1]: < 4.30
- BINDING IL4 % Neutra at 100 μM [2]: 97.9%
- pIC50 [2]: 5.30
- Displacement EC50 TNFa in presence of compound: Difference [3]: 6.4 ng/mL
- Displacement (%) [3]: 186%
- BINDING IL6 % Neutra at 100 μM [4]: 8.9%
- pIC50 [5]: 5.37

Structure (SMILES): CN(CCCCN(Cc1cccnc1)Cc1cn(S(=O)(=O)c2ccccc2)c2ccccc12)C1CCCCC1 [Compound 17]
- BINDING IL13 % Neutra at 100 μM [1]: 87.7%
- pIC50 [1]: < 4.30
- BINDING IL4 % Neutra at 100 μM [2]: 97.9%
- pIC50 [2]: 5.30
- Displacement (%) [3]: 133%
- BINDING IL6 % Neutra at 100 μM [4]: 20.7%
- pIC50 [5]: 5.96

Structure (SMILES): CN(CCCCN(Cc1ccncc1)Cc1cn(S(=O)(=O)c2ccccc2)c2ccccc12)C1CCCCC1 [Compound 18]
- BINDING IL13 % Neutra at 100 μM [1]: 94.2%
- pIC50 [1]: 4.09
- BINDING IL4 % Neutra at 100 μM [2]: 98.4%
- pIC50 [2]: 5.28
- Displacement EC50 TNFa in presence of compound: Difference [3]: Difference = 6 ng/ml
- Displacement (%) [3]: 145%
- BINDING IL6 % Neutra at 100 μM [4]: 16.3%
- pIC50 [5]: 5.66

More lines, now with the values ahead:

- BINDING IL13 % Neutra at 100 μM [1]: 86.2%
- pIC50 [1]: < 4.30
- BINDING IL4 % Neutra at 100 μM [2]: 97.3%
- pIC50 [2]: 5.07
- Displacement EC50 TNFa in presence of compound: Difference [3]: 7.8 ng/mL
- Displacement (%) [3]: 146%
- BINDING IL6 % Neutra at 100 μM [4]: 3.3%
- pIC50 [5]: 5.03
Structure (SMILES): O=S(=O)(c1ccccc1)n1cc(CN(CCCNC2CCCCC2)Cc2cccnc2)c2ccccc21 [Compound 7]

- BINDING IL13 % Neutra at 100 μM [1]: 91.2%
- pIC50 [1]: < 4.30
- BINDING IL4 % Neutra at 100 μM [2]: 98.4%
- pIC50 [2]: 5.28
- Displacement (%) [3]: 149%
- BINDING IL6 % Neutra at 100 μM [4]: 2.8%
- pIC50 [5]: 4.93
Structure (SMILES): CN(CCCN(Cc1ccncc1)Cc1cn(-c2cccc(C(F)(F)F)c2)c2ccccc12)C1CCCCC1 [Compound 14]

- BINDING IL13 % Neutra at 100 μM [1]: 94.8%
- pIC50 [1]: < 4.30
- BINDING IL4 % Neutra at 100 μM [2]: 99%
- pIC50 [2]: 5.20
- Displacement EC50 TNFa in presence of compound: Difference [3]: 5.1 ng/mL
- Displacement (%) [3]: 167%
- BINDING IL6 % Neutra at 100 μM [4]: 11.5%
- pIC50 [5]: 5.09
Structure (SMILES): O=S(=O)(c1ccccc1)n1cc(CN(CCCCNC2CCCCC2)Cc2cccnc2)c2ccccc21 [Compound 15]

- BINDING IL13 % Neutra at 100 μM [1]: 88.2%
- pIC50 [1]: < 4.30
- BINDING IL4 % Neutra at 100 μM [2]: 99.5%
- pIC50 [2]: 5.32
- Displacement EC50 TNFa in presence of compound: Difference [3]: 4.7 ng/mL
- Displacement (%) [3]: 165%
- BINDING IL6 % Neutra at 100 μM [4]: 15.7%
- pIC50 [5]: 5.27
Structure (SMILES): O=S(=O)(c1ccccc1)n1cc(CN(CCCCNC2CCCCC2)Cc2ccncc2)c2ccccc21 [Compound 16]
